Experiment [1] has as its target T1, ArgB (Mycobacterium tuberculosis, UniProt P9WQ01). In words: biochemical. The format is binding. The settings on record: 25 °C, single-site model; read-out: ITC Kd.
In experiment [2] the target is T1, ArgB. The experiment is described as follows: ArgB enzymatic assay (ADP release coupled to NADH oxidation, pyruvate kinase/lactate dehydrogenase). Type of experiment: biochemical. The settings on record: for IC50: 0.5 µM ArgB, 0.3 mM ATP, 1.25 mM NAG, 10% DMSO, read-out: IC50; for Nature of ArgB inhibition in enzymatic competition assays: 0.3 mM ATP or NAG, other substrate varied. The protocol:
ArgB activity was assessed by a colorimetric assay that followed the release of ADP by measuring the oxidation of NADH at 340 nm, for 30 min, in the presence of pyruvate kinase and lactate dehydrogenase in a PHERAstar plate-reader (BMG-Labtech). […]. Inhibitors were also individually screened against the coupled enzymes to eliminate any compounds interfering with the other assay components. Competition assays were performed in the same conditions using 0.3 mM of ATP or NAG and varying the other substrate concentration.

The next experiment deals with M. tuberculosis H37Rv. The experiment is described as follows: microbe, parasite or virus in culture. Type of experiment: cell-based, Mycobacterium tuberculosis. The settings on record: for MIC: Mycobacterium tuberculosis, media without arginine; for Inhibitory activity on growth with arginine present: arginine (1 mM) in the media.
For experiment [3], the system named is M. tuberculosis MDR strain V2475. In words: microbe, parasite or virus in culture. Type of experiment: cell-based, Mycobacterium tuberculosis. The settings on record: for MIC: Mycobacterium tuberculosis.
For experiment [4], the target named is T1, ArgB. In words: Ligand-observed NMR (CPMG) with ArgB, incl. displacement experiments. Type of experiment: binding. The settings on record: 2 mM fragment, 10 µM ArgB; for NMR competition with natural ligands (ATP, NAG, L-arginine): 1 mM each natural ligand.
For experiment [5], the target named is T1, ArgB. The experiment is described as follows: Ligand-observed NMR (STD) with ArgB. Type of experiment: binding. The settings on record: 2 mM fragment, 10 µM ArgB.
The subject of another experiment is M. tuberculosis ΔargB-c. In words: microbe, parasite or virus in culture. The format is cell-based, Mycobacterium tuberculosis. The settings on record: for MIC: Mycobacterium tuberculosis.
In experiment [6] the target is T1, ArgB. The experiment is described as follows: Differential scanning fluorimetry (DSF) fragment screening against ArgB. The format is binding. The settings on record: fragments at 5 mM, 10 µM ArgB, 5% DMSO. On the procedure:
Fragment screening was carried out in a 96-well PCR plate using a CFX Connect Real-time PCR Detection System (Bio-Rad) for DSF. For ArgB, each 25 μL reaction mixture contained 10 µM ArgB, 100 mM HEPES (pH 7.5), 200 mM NaCl, 5x SYPRO Orange, 5% DMSO (v/v), and fragments at 5 mM. For ArgF each 25 μL reaction mixture contained 5 µM ArgF, 25 mM Tris-HCl (pH 8.0), 150 mM NaCl, 5x SYPRO Orange dye, 5 mM fragments and 5% DMSO (v/v). For ArgC and ArgD, the 25 μL reaction volume consisted of the following: 2.5 μM ArgC/5 μM ArgD, 100 mM sodium phosphate pH 7, 200 mM NaCl, 5x SYPRO Orange, and 5 mM fragments (960 fragment library). The protocol implemented increased temperature by 0.5 °C after every 30 s, going from 25 °C to 95 °C and measuring SYPRO Orange fluorescence for each temperature cycle. The melt curve RFU (relative fluorescence units) and derivative -d(RFU)/dT values were analysed and plotted using a macros-enabled Excel Workbook: the minima of the melt curves were recorded as the melting temperature (Tm) of the enzymes in the presence of each fragment. The Tm of the reference control (protein in the presence of DMSO) was subtracted from all the readings to calculate ΔTm.

Experiment [7] has as its target T2, ArgD (Mycobacterium tuberculosis, UniProt P9WPZ7). In words: Surface plasmon resonance with immobilised ArgD. The settings on record: fragments at 1 mM, adjusted for molecular weight. The format is binding. On the technique in general: SPR reads the build-up and loss of mass on a sensor chip optically.
In experiment [8] the target is T2, ArgD. In words: ArgD end point enzymatic assay (reverse reaction, 2-aminobenzaldehyde, 440 nm). The format is biochemical. On the procedure: To assess the activity of ArgD an end point assay that follows the reverse reaction of the enzyme was used in the presence and absence of fragments. Reactions (100 μL) were set up containing the following: 100 mM Tris-HCl pH 8, 3 mM N-acetylornithine (NAO), 3.4 mM α-KG, 20 μM PLP and 4 μM enzyme. Duplicate reaction mixtures were prepared for each time point and 8 time points (0, 5, 10, 15, 20, 30, 45, 60 min) were tested in total. Two controls were prepared: one with all reaction components except the enzyme, and the other with all reaction components except NAO (NAO was added after HCl treatment). The reactions tubes were allowed to equilibrate in a heating block set at 37 °C for two minutes, and the enzyme was added to initiate the reaction. After the stipulated incubation times, contents of the reaction tubes were quickly transferred to 1.5 ml microcentrifuge tubes containing 60 μL of 6 N HCl to stop the reactions. These tubes were then kept in a heating block set at 95 °C for 30 min, after which they were cooled to 25 °C in a water bath. 200 μL of 3.6 M sodium acetate was added to each tube (final concentration of 1.8 M), along with 40 μL of 30 mM 2-aminobenzaldehyde (final concentration of 3 mM in a total volume of 400 μL). A yellow colouration started developing as soon as the latter was added, the contents were vortexed and the tubes were incubated at 25 °C for 15 min. 200 μL of each reaction mixture was transferred into wells of a 96-well flat bottom UV transparent microplate, and absorbance at 440 nm was measured using the PHERAstar plate reader. All experiments were performed at least in triplicate in a PHERAstar plate-reader (BMG-Labtech) and the control without ArgD was used for blank subtraction. Data were analysed with GraphPad Prism (Graphpad Software). All reagents were obtained from Sigma-Aldrich.
Aminotransferases are often assayed for the reverse reactions they catalyse because in most cases substrates for the forward reaction are not commercially sold. […]

The target in experiment [9] is T2, ArgD. In words: Differential scanning fluorimetry (DSF) against ArgD. The format is binding. The settings on record: fragments at 5 mM, PLP-unsaturated ArgD. (Differential scanning fluorimetry follows unfolding on heating by fluorescence.)
In experiment [10] the target is T3, ArgF (Mycobacterium tuberculosis, UniProt P9WIT9). The experiment is described as follows: biochemical. The format is binding. The settings on record: read-out: DSF ΔTm; for ΔTm at 5000 µM: fragments at 5 mM, 5 µM ArgF, 5% DMSO.
T3 sequence (P9WIT9 whole entry, the tested form may be a part): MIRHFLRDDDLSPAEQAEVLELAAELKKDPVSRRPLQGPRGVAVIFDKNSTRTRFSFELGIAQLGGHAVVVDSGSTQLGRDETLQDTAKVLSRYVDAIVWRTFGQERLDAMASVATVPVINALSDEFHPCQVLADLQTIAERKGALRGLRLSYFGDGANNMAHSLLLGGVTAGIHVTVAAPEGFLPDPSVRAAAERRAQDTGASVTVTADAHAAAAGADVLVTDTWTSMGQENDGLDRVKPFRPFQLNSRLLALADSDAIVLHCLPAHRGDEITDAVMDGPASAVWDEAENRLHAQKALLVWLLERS
Description: Fragment screening was carried out in a 96-well PCR plate using a CFX Connect Real-time PCR Detection System (Bio-Rad) for DSF. […] For ArgF each 25 μL reaction mixture contained 5 µM ArgF, 25 mM Tris-HCl (pH 8.0), 150 mM NaCl, 5x SYPRO Orange dye, 5 mM fragments and 5% DMSO (v/v). […] The protocol implemented increased temperature by 0.5 °C after every 30 s, going from 25 °C to 95 °C and measuring SYPRO Orange fluorescence for each temperature cycle. The melt curve RFU (relative fluorescence units) and derivative -d(RFU)/dT values were analysed and plotted using a macros-enabled Excel Workbook: the minima of the melt curves were recorded as the melting temperature (Tm) of the enzymes in the presence of each fragment. The Tm of the reference control (protein in the presence of DMSO) was subtracted from all the readings to calculate ΔTm.
Experiment [11] addresses T3, ArgF. The experiment is described as follows: Isothermal titration calorimetry with ArgF. The settings on record: 25 °C, single-site model; read-out: ITC Kd. Type of experiment: binding. On the procedure:
ArgF was dialysed in 50 mM HEPES pH 8.0, 200 mM NaCl before it was loaded into the calorimetry cell at concentrations of 75–100 μM with the addition of 1 mM DTT. Ligand solutions at concentrations of 1 mM were dissolved in the same buffer and typically injected between 0.5 μL and 2 μL at 150 s intervals with stirring at 750 rpm. Buffer-ligand titrations were carried out as reference runs and subtracted from the protein–ligand titration to remove the heat of dilution. Data were analysed by fitting a simple single-site model using Origin software (Microcal).

The next experiment has as its system M. tuberculosis. The arrangement: method as in PMID 29483133. The settings on record: BALB/c mice, chemical inhibition of ArgJ; cited from earlier work.

≈ marks a conversion by molar mass, not a printed value.

T2 sequence (P9WPZ7 whole entry, the tested form may be a part): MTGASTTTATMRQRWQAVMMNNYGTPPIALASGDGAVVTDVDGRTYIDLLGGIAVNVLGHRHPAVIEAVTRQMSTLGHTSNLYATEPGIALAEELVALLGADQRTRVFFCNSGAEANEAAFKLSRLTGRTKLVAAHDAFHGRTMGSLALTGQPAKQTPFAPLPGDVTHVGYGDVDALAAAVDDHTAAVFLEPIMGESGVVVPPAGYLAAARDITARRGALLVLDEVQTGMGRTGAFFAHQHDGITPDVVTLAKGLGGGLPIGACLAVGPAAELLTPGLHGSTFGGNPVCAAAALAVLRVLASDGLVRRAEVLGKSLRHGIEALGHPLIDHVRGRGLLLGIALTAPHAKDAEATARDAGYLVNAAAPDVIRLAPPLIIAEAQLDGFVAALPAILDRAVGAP

With `O=c1cc[nH]c2c(C(F)(F)F)cccc12` [NMR446, 8-(trifluoromethyl)-1H-quinolin-4-one], the dissociation constant (Kd) – broadly, the free concentration of one partner at which half of the binding sites on the other are occupied at equilibrium, for simple one-to-one binding – at ArgB [1] was found to be 24 ± 1.5 µM. Besides, at ArgB [2], the IC50 (as a rule, the concentration that inhibits the measured activity by half) was 707 ± 7 µM and the “Nature of ArgB inhibition in enzymatic competition assays” value was “non-competitive”. Moreover, in the experiment on M. tuberculosis H37Rv, the MIC was more than 200 µg/mL and the “Inhibitory activity on growth with arginine present” value (from here on “Inhibitory activity on growth”) is reported as “no inhibitory activity”. In [3], this compound displayed an MIC of more than 200 µg/mL. At ArgB [4], the CPMG result is given as “binds” and the “NMR competition with natural ligands (ATP, NAG, L-arginine)” value is on record as “not competitive”. Also, on ArgB [5], the STD result was “binds”. Moreover, in the experiment on M. tuberculosis ΔargB-c, the “Inhibitory activity on growth” value was “no inhibitory activity” and the MIC was more than 200 µg/mL. In addition, on ArgB [6], the ΔTm (usually the change in melting temperature against a reference sample) at 5000 µM is 8 °C.
`O=C(O)c1cc2ccccc2cc1O` [NMR608, 3-Hydroxy-2-naphthoic acid]: the “SPR Binding Response with PLP injection” value on ArgD [7] worked out at 50.3 RU. At ArgD [8] (2 mM fragment, 4 μM ArgD), the % inhibition (in general, how much of the control response was suppressed) at 2 mM is 16.6% and the inhibition (commonly the drop in the measured response relative to a control, in per cent) at 2000 µM is 16%. Further, the inhibition at 4000 µM on ArgD [8] (read-out: % inhibition at 4 mM, 4 mM fragment, 4 μM ArgD) stood at 31%. In addition, the thermal shift (ΔTm) at 5000 µM on ArgD [9] came to 2.4 °C.
For the compound `Cc1sc(N)nc1-c1ccccc1` [NMR007], on ArgF [10], the ΔTm at 5000 µM came out at 3 °C. Also, on ArgF [11], the Kd came out at 161 ± 20 µM.
Take `O=c1cc(C(F)(F)F)[nH]c2c(C(F)(F)F)cccc12` [NMR711, 2,8-bis(trifluoromethyl)-1H-quinolin-4-one]: the dissociation constant Kd at ArgB [1] came to 7.7 ± 0.8 µM. At ArgB [2], the IC50 amounted to 366 ± 4 µM and the “Nature of ArgB inhibition in enzymatic competition assays” value is recorded as “non-competitive”. In the experiment on M. tuberculosis H37Rv, the MIC was 25 to 50 µg/mL (≈ 88.9 to 178 µM) and the “Inhibitory activity on growth” value was “inhibitory”. In addition, the MIC in experiment [3] lay within 25 to 50 µg/mL (≈ 88.9 to 178 µM). In addition, the “Inhibitory activity on growth” value in experiment [3] (V2475, arginine (1 mM) in the media) is “inhibitory”. Moreover, at ArgB [4], the CPMG result is given as “binds” and the “NMR competition with natural ligands (ATP, NAG, L-arginine)” value was “not competitive”. Moreover, the STD entry on ArgB [5] is “binds”. In the experiment with M. tuberculosis ΔargB-c, the “Inhibitory activity on growth” value was “inhibitory” and the MIC is 25 to 50 µg/mL (≈ 88.9 to 178 µM). On ArgB [6], the ΔTm at 5000 µM turned out to be 7.9 °C.
For the compound `OB(O)c1cc(Cl)cc(Cl)c1` [NMR812], on ArgF [10], the ΔTm at 5000 µM is 3.6 °C. For the same compound, at ArgF [11], the Kd is 120 ± 30 µM.
Turning to `NC(=O)NCCC[C@H](N)C(=O)O` [L-citruline, L-citrulline, reference compound], the ΔTm at 1000 µM at ArgF [10] (natural ligands at 1 mM) was 1 °C.
In the case of `O=C(Nc1cccc2c(=O)cc(-c3nnn[nH]3)oc12)c1ccc(OCCCCc2ccccc2)cc1` [Pranlukast], in the experiment with M. tuberculosis, the “Effect on chronic M. tuberculosis infection” value is “cleared a chronic M. tuberculosis infection”.

The record behind these values is PMC8220418, “A fragment-based approach to assess the ligandability of ArgB, ArgC, ArgD and ArgF in the L-arginine biosynthetic pathway of Mycobacterium tuberculosis” (Computational and Structural Biotechnology Journal, 2021).
